# Source: patent US20140329868A1, “METHODS FOR TREATING HYPERTENSION” (TAKEDA PHARMACEUTICALS U.S.A., INC., priority 2005, published 2014)
# Columns and labels:
# [1] = test system: oxonic acid (OA)-induced hyperuricemic model in Sprague-Dawley rats; experiment: Example 4: micropuncture glomerular hemodynamics and mean arterial pressure under anesthesia in normal and OA-dosed rats; format: in vivo; conditions: for mean arterial blood pressure (effect in words): end of study, FIG. 3
# Description: Materials and Methods. To produce hyperuricemia, rats received OA (Sigma, St Louis Mo., USA) 750 mg/kg body weight daily by gastric gavage. To investigate the treatment effect of febuxostat (also referred to herein as “Fx”), the drug was administered in drinking water at 50 mg/L (approximately 5-6 mg/kg/day) four weeks after OA dosing while the respective controls received 5.84 mg/L of NaCl in drinking water (to maintain a salt concentration equivalent to the Febuxostat-containing water). The following four groups (n=10-11) were included in the study: Group 1, normal control rats which received no treatment for eight weeks; Group 2, Normal+Febuxostat rats which received no treatment for four weeks and then were treated with febuxostat for four weeks from Weeks 5 to 8; Group 3, OA rats which received OA for eight weeks; and Group 4, OA+Febuxostat rats which received OA for eight weeks and febuxostat for four weeks from Weeks 5 to 8. Body weight, food and water intakes were measured daily. Systolic blood pressure, obtained in conscious rats by a tail cuff sphygmomanometer, and plasma uric acid were measured in all animals at baseline and at the end of four and eight weeks. A renal micropuncture procedure along with systemic arterial blood pressure monitoring under pentobarbital anesthesia were performed at the end of eight weeks followed by morphologic evaluation of the renal preglomerular microvasculature.
# Micropuncture Procedure to Assess Glomerular Hemodynamics. Animals were anesthetized with pentobarbital sodium (30 mg/kg, i.p.) and placed on a thermoregulated table to maintain body temperature at 37° C. Trachea, jugular veins, femoral arteries and the left ureter were catheterized with polyethylene tubing (PE-240, PE-50 and PE-10). The left kidney was exposed, placed in a Lucite holder, sealed with agar and covered with Ringer's solution. Mean arterial pressure (hereinafter “MAP”) was monitored using a pressure transducer (Model p23 db; Gould, San Juan, PR) connected to the catheter in the femoral artery and recorded on a polygraph (Grass Instruments, Quincy, Mass., USA). Blood samples were taken periodically and replaced with blood from a donor rat. Rats were maintained under euvolemic conditions by infusion of 10 mL/kg of body weight of isotonic rat plasma during surgery, followed by an infusion of 25% polyfructosan at 2.2 mL/h (Mutest, Fresenius Kabi, Linz, Austria). After 60 min, five to seven samples of proximal tubular fluid were obtained to determine flow rate and polyfructosan concentrations. Intratubular pressure under free-flow (hereinafter “FF”) and stop-flow (hereinafter “SFP”) conditions and peritubular capillary pressure (hereinafter “Pc”) were measured in other proximal tubules with a servo-null device (Servo Nulling Pressure System; Instrumentation for Physiology and Medicine, San Diego, Calif., USA). Glomerular colloid osmotic pressure was estimated from protein concentrations obtained from blood of the femoral artery (hereinafter “Ca”) and surface efferent arterioles (hereinafter “Ce”). Polyfructosan was measured in plasma and urine samples by the anthrone-based technique of Davidson and Sackner (See, Davidson W D et al., J Lab Clin Med 62:351-356 (1963)). Plasma samples were deproteinated first with trichloroacetic acid. After centrifugation, the supernatant was used for polyfructosan measurement. Polyfructosan concentrations in plasma and urine samples were assessed by addition of anthrone reagent followed by incubation at 45° C. for 50 min and reading in a spectrophotometer set at wavelength of 620 nm. Concentrations were calculated by interpolating the absorbance values using a standard curve (0.01-0.05 mg/mL). Total glomerular filtration rate (hereinafter “GFR”) was calculated using the following formula: GFR=(U×V)/P, where U is the polyfructosan concentration in urine, V is urine flow rate, and P is the polyfructosan concentration in plasma. […]
# [2] = test system: oxonic acid (OA)-induced hyperuricemic model in Sprague-Dawley rats; experiment: Example 4: renal arteriolar morphology in normal and OA-dosed rats; format: in vivo
# Description: Materials and Methods. To produce hyperuricemia, rats received OA (Sigma, St Louis Mo., USA) 750 mg/kg body weight daily by gastric gavage. To investigate the treatment effect of febuxostat (also referred to herein as “Fx”), the drug was administered in drinking water at 50 mg/L (approximately 5-6 mg/kg/day) four weeks after OA dosing while the respective controls received 5.84 mg/L of NaCl in drinking water (to maintain a salt concentration equivalent to the Febuxostat-containing water). The following four groups (n=10-11) were included in the study: Group 1, normal control rats which received no treatment for eight weeks; Group 2, Normal+Febuxostat rats which received no treatment for four weeks and then were treated with febuxostat for four weeks from Weeks 5 to 8; Group 3, OA rats which received OA for eight weeks; and Group 4, OA+Febuxostat rats which received OA for eight weeks and febuxostat for four weeks from Weeks 5 to 8. Body weight, food and water intakes were measured daily. Systolic blood pressure, obtained in conscious rats by a tail cuff sphygmomanometer, and plasma uric acid were measured in all animals at baseline and at the end of four and eight weeks. […]
# Renal Histology and Quantification of Morphology. […] Arteriolar morphology was assessed by indirect peroxidase immunostaining for alpha smooth-muscle actin (DAKO Corp, Carpinteria, Calif., USA). […]
# For each arteriole, the outline of the vessel and its internal lumen (excluding the endothelium) were generated using computer analysis to calculate the total medial area (outline−inline) in 10 arterioles per biopsy. The media/lumen ratio was calculated by the outline/inline relationship (See, Sanchez-Lozada L G, et al., Am J Physiol Renal Physiol 283:F1105-F1110, (2002) and Sanchez-Lozada L G, et al., Kidney Int 67:237-247 (2005)). Quantifications were performed blinded.
# Statistical Analysis. Values were expressed as mean±standard error of the mean (hereinafter “SEM”). In the study, values from the respective four treatment groups were analyzed by one-way analysis of variance (hereinafter “ANOVA”). […]
# [3] = Normal + FX rats, end of eight weeks
# [4] = OA + Fx rats, end of eight weeks
smiles,measurement,setting,value
"Cc1nc(-c2ccc(OCC(C)C)c(C#N)c2)sc1C(=O)O [febuxostat, 2-[3-cyano-4-(2-methylpropoxy)phenyl]-4-methylthiazole-5-carboxylic acid]",FF (free flow tubular pressure),[1]; [3],13.4 ± 0.8 mmHg
same,GFR (glomerular filtration rate),[1]; [3],0.9 ± 0.1 mL/min
same,Kf (ultrafiltration coefficient),[1]; [3],0.046 ± 0.004 nL/s · mmHg
same,PGC (glomerular capillary pressure),[1]; [3],46.3 ± 1.4 mmHg
same,Pc (peritubular capillary pressure),[1]; [3],12.5 ± 0.8 mmHg
same,QA (glomerular plasma flow),[1]; [3],135.0 ± 11.2 nL/min
same,SFP (stop flow pressure),[1]; [3],30.7 ± 0.8 mmHg
same,SNGFR (single nephron GFR),[1]; [3],34.6 ± 2.3 nL/min
same,MAP (mean arterial pressure),"[1]; Normal + FX rats, end of eight weeks, under anesthesia",123 ± 3 mmHg
same,FF (free flow tubular pressure),[1]; [4],12.9 ± 0.5 mmHg
same,GFR (glomerular filtration rate),[1]; [4],1.0 ± 0.1 mL/min
same,Kf (ultrafiltration coefficient),[1]; [4],0.070 ± 0.011 nL/s · mmHg
same,PGC (glomerular capillary pressure),[1]; [4],46.5 ± 1.0 mmHg
same,Pc (peritubular capillary pressure),[1]; [4],13.2 ± 0.7 mmHg
same,QA (glomerular plasma flow),[1]; [4],183.6 ± 21.4 nL/min
same,SFP (stop flow pressure),[1]; [4],29.7 ± 1.0 mmHg
same,SNGFR (single nephron GFR),[1]; [4],45.7 ± 5.2 nL/min
same,ultrafiltration coefficient (Kf) compared to the other groups (in words),[1]; [4],"numerically, but insignificantly higher"
same,MAP (mean arterial pressure),"[1]; OA + Fx rats, end of eight weeks, under anesthesia, listed as Fx",112 ± 5 mmHg
same,elevation in glomerular capillary pressure (PGC) and stop flow pressure (effect in words),"[1]; OA-treated rats, end of eight weeks",prevented these changes
same,mean arterial blood pressure (effect in words),"[1]; OA-treated rats, intra-arterial cannulation under anesthesia",reduced to the normal range
same,glomerular hemodynamics (effect in words),"[1]; normal rats, end of eight weeks",did not alter glomerular hemodynamics
same,mean arterial blood pressure (effect in words),"[1]; normal rats, under anesthesia",did not alter MAP
same,"thickening of the afferent arteriole (medial area), effect in words","[2]; OA-treated rats, FIG. 4",able to alleviate this thickening
same,arteriolar media-lumen ratio (effect in words),"[2]; OA-treated rats, FIG. 5",significantly reduced
same,arteriolar morphology (effect in words),[2]; normal rats,no effect on arteriolar morphology
